Test results from US9340577B2, “HLA binding motifs and peptides and their uses” (priority 1992, dated 2016).
No end group written: not given here.

Tests used:
Test in all cases: biochemical
Assay type in all cases: binding
[1] = target: HLA-A3.2 (A*0301) (Homo sapiens, UniProt P04439)
[2] = target: HLA-A11 (A*1101) (Homo sapiens, UniProt P04439, A114D/D185E/E176A/F33Y/L180Q/S129P/T187R)
[3] = target: A31 (A*3101) (Homo sapiens, UniProt P04439, A270S/D185E/E176V/E277Q/F33T/G231S/G80R/H175R/I121M/I218V/I322F/K168Q/L300P/L318F/M331R/P217A/Q94H/R138Q/T323A/T345S/T97I/V358M)
[4] = target: A*3301 (Homo sapiens, UniProt P04439, A270S/D185E/E176V/E277Q/E87N/F33T/G231S/H175R/I121M/I218V/I322F/K168Q/K210R/L300P/L318F/M331R/P217A/Q86R/Q94H/R138Q/T323A/T345S/T97I/V358M/Y195H)
[5] = target: A*6801 (Homo sapiens, UniProt P04439, A269V/D185E/E176V/E277Q/E87N/F33Y/G231S/I121M/I166T/I218V/L180W/L300P/L318F/N151K/P208A/P217A/Q86R/R169H/T345S)

VSIEWRQRR [Peptide 9017.0089]
IC50 [1]: 1350 nM | IC50 [2]: 13 nM | IC50 [3]: 1.5 nM | IC50 [4]: 7.1 nM | IC50 [5]: 41 nM

VTIKIGGQIR [Peptide 1516.05]
IC50 [1]: 13000 nM | IC50 [2]: 389 nM | IC50 [3]: 1140 nM | IC50 [4]: > 20000 nM | IC50 [5]: 46 nM

VTIRVAGQVK [Peptide 1516.04]
IC50 [1]: 53 nM | IC50 [2]: 21 nM | IC50 [3]: 4600 nM | IC50 [4]: > 20000 nM | IC50 [5]: 52 nM

VTIRVGGQLR [Peptide 1516.07]
IC50 [1]: 3260 nM | IC50 [2]: 17 nM | IC50 [3]: 32 nM | IC50 [4]: 9430 nM | IC50 [5]: 28 nM

VTIYYGVPVWK [Peptide 1525.03]
IC50 [1]: 42 nM | IC50 [2]: 2.5 nM | IC50 [3]: 534 nM | IC50 [4]: > 20000 nM | IC50 [5]: 28 nM

VTIYYGVPVWR [Peptide 1525.04]
IC50 [1]: 920 nM | IC50 [2]: 3 nM | IC50 [3]: 4 nM | IC50 [4]: 51 nM | IC50 [5]: 3.4 nM

VTVKIGGELK [Peptide 1516.03]
IC50 [1]: 4110 nM | IC50 [2]: 39 nM | IC50 [3]: > 20000 nM | IC50 [4]: > 20000 nM | IC50 [5]: 33 nM

VTVKVGGQLR [Peptide 1516.06]
IC50 [1]: 8930 nM | IC50 [2]: 199 nM | IC50 [3]: 503 nM | IC50 [4]: 12700 nM | IC50 [5]: 96 nM

VTVQYDNDKK [Peptide 88.0216]
IC50 [1]: 18200 nM | IC50 [2]: 100 nM | IC50 [3]: > 20000 nM | IC50 [4]: > 20000 nM | IC50 [5]: 1150 nM

VTVYYGIPVWR [Peptide 1525.05]
IC50 [1]: 123 nM | IC50 [2]: 17 nM | IC50 [3]: 3.8 nM | IC50 [4]: 4.5 nM | IC50 [5]: 3.6 nM

VTVYYGVPIWK [Peptide 1525.02]
IC50 [1]: 18 nM | IC50 [2]: 2.3 nM | IC50 [3]: 150 nM | IC50 [4]: 1350 nM | IC50 [5]: 5 nM

VTVYYGVPVWR [Peptide 1525.01]
IC50 [1]: 560 nM | IC50 [2]: 22 nM | IC50 [3]: 19 nM | IC50 [4]: 511 nM | IC50 [5]: 29 nM

VTYNSEVQR [Peptide 1589.29]
IC50 [1]: 71 nM | IC50 [2]: 25 nM | IC50 [3]: 40 nM | IC50 [4]: 152 nM | IC50 [5]: 23 nM

VVLLLVRYK [Peptide 1587.05]
IC50 [1]: 13 nM | IC50 [2]: 21 nM | IC50 [3]: 1.2 nM | IC50 [4]: 21 nM | IC50 [5]: 540 nM

VVPAYNISK [Peptide 88.0397]
IC50 [1]: 69 nM | IC50 [2]: 14 nM | IC50 [3]: > 20000 nM | IC50 [4]: > 20000 nM | IC50 [5]: 992 nM

VVQQLLMGA [Peptide 78.0338]
IC50 [1]: > 20000 nM | IC50 [2]: > 20000 nM | IC50 [3]: 2830 nM | IC50 [4]: 438 nM | IC50 [5]: 1440 nM

VVVKSPNHVK [Peptide 9012.0255]
IC50 [1]: 256 nM | IC50 [2]: 88 nM | IC50 [3]: 7700 nM | IC50 [4]: > 20000 nM | IC50 [5]: 320 nM

VVYRDSIPH [Peptide 78.0275]
IC50 [1]: 401 nM | IC50 [2]: 178 nM | IC50 [3]: > 20000 nM | IC50 [4]: > 20000 nM | IC50 [5]: > 20000 nM

WLIKRIRER [Peptide 9017.0122]
IC50 [1]: 5160 nM | IC50 [2]: > 20000 nM | IC50 [3]: 85 nM | IC50 [4]: 20 nM | IC50 [5]: 50 nM

WTIAYIEYR [Peptide 9017.0116]
IC50 [1]: 11300 nM | IC50 [2]: 31 nM | IC50 [3]: 97 nM | IC50 [4]: 14 nM | IC50 [5]: 8.6 nM

WTIAYIEYRK [Peptide 9017.0244]
IC50 [1]: 4650 nM | IC50 [2]: 62 nM | IC50 [3]: 885 nM | IC50 [4]: 493 nM | IC50 [5]: 1.2 nM

WTYFDTYMR [Peptide 88.0346]
IC50 [1]: > 20000 nM | IC50 [2]: 293 nM | IC50 [3]: 332 nM | IC50 [4]: 95 nM | IC50 [5]: 3.8 nM

YGFRLGFLK [Peptide 1556.27]
IC50 [1]: 41 nM | IC50 [2]: 1 nM | IC50 [3]: 224 nM | IC50 [4]: 839 nM | IC50 [5]: 16 nM

YQNFQNADK [Peptide 99.0371]
IC50 [1]: 2710 nM | IC50 [2]: 177 nM | IC50 [3]: 44700 nM | IC50 [4]: > 18400 nM | IC50 [5]: 19800 nM

YVMAGVGSPK [Peptide 9012.0253]
IC50 [1]: 25 nM | IC50 [2]: 13 nM | IC50 [3]: 5730 nM | IC50 [4]: 219 nM | IC50 [5]: 18 nM
